Data: patent publication US11040951B2, “Methods and compositions relating to genotoxin colibactin” (PRESIDENT AND FELLOWS OF HARVARD COLLEGE, priority 2018, dated 2021)
Non-standard residues stand in square brackets, D forms with d. Residues, ends and D or L forms follow the SMILES beside them. *: point of attachment. Myristoyl = CCCCCCCCCCCCCC(=O)*

Experiments:
Type in all cases: biochemical, E. coli
[1] = system: ClbPFL (full-length ClbP); assay: In vitro cleavage of synthetic substrates by ClbPFL, LC-MS detection; settings: for cleavage by ClbPFL in vitro: LC-MS detection of cleavage product
Experimental: (§1) The top graph of FIG. 2A depicts LC-MS detection of the prodrug scaffold ([M+H]^+: 343.2597 m/z) released by the hydrolysis of (1) by ClbP in vitro. Reactions were carried out in 50 mM Tris pH 8.0, 200 mM NaCl, 0.1 μM enzyme. 0.02% w/v DDM was added for all reactions involving full-length ClbP (Error bars are SD, n=3). The bottom graph of FIG. 2B depicts kinetic analysis of ClbP acting on synthetic precolibactin-mimic substrate (1). Note that this substrate is insoluble above 200 μM under assay conditions. Rates were calculated by quenching reactions in 1-minute intervals in methanol and quantifying the amount of substrate cleaved by derivatization of the L-alanine product with o-phthaldialdehye (OPA) and fluorescence detection (see Examples) (Error bars are SD, n=3). Substrate is insoluble above 200 μM under assay conditions. All kinetics experiments are averages of 3 independent replicates, reactions were carried out in 50 mM Sodium Phosphate pH 8.0, 200 mM NaCl, 0.02% w/v DDM, 0.1 μM enzyme. The bottom graph of FIG. 2B depicts the approach and substrates sampled in this SAR study. All kinetics experiments are averages of 3 independent replicates, reactions were carried out in 50 mM Sodium Phosphate pH 8.0, 200 mM NaCl, 0.02% w/v DDM, 0.1 μM ClbP-FL (full length) (also referred to herein as ClbPFL). All errors are ±SD.
Optical densities of E. coli cultures were determined with a DU 730 Life Sciences UV/Vis spectrophotometer (Beckman Coulter, Indianapolis, Ind.) by measuring absorbance at 600 nm. Ultracentrifugation was performed on a Beckman-Coulter Optima XE-90 Ultracentrifuge fitted with a type 45 Ti rotor in 70 mL polycarbonate tubes. Solvents and formic acid used for LC-MS were B & J Brand High Purity Solvents (Honeywell Research Chemicals). High-resolution LC-MS analyses of enzyme assays and synthetic compounds were performed on an Agilent 6530 Q-TOF Mass Spectrometer fitted with a dual-spray electrospray ionization (ESI) source. The capillary voltage was set to 3.5 kV, the fragmentor voltage to 175 V, the skimmer voltage to 65 V, and the Oct 1 RF to 750 V. The drying gas temperature was maintained at 275° C. with a flow rate of 8 L/min and a nebulizer pressure of 35 psi. A standard calibrant mix was introduced continuously during all experiments via the dual-spray ESI source. For analytical liquid chromatography, unless otherwise noted, experiments were performed using an Agilent Technologies 1200 series LC on a Hypersil GOLDaq™ C18 reverse phase column (50×3 mm, Thermo Scientific) with the following elution conditions: a gradient from 35% solvent A:65% solvent B to 100% solvent A over 5 minutes, holding at 100% A for 2 minutes, followed by a gradient back to 35% solvent A over 1 minute and holding at 35% solvent A for 3.5 minutes (solvent A: acetonitrile+0.1% formic acid; solvent B: water+0.1% formic acid; flow rate=0.4 mL/minute; injection volume=10 μL). All experiments were performed in positive ion mode, and the masses detected corresponded to [M+H]+ ions unless otherwise noted. Masses were found within 5 ppm of the expected [M+H]+ masses.
For all in vitro assays involving ClbPFL and ClbFL-S95A “Tris assay buffer” refers to a buffer composed of 50 mM Tris, 200 mM NaCl, 0.02% w/v DDM, pH 8.0. Likewise, “phosphate assay buffer” refers to 50 mM sodium phosphate, 200 mM NaCl, 0.02% w/v DDM, pH 8.0.

[2] = system: ClbPFL-S95A; assay: In vitro cleavage of synthetic substrates by inactive mutant, LC-MS detection
Experimental: as §1
(§2) Optical densities of E. coli cultures were determined with a DU 730 Life Sciences UV/Vis spectrophotometer (Beckman Coulter, Indianapolis, Ind.) by measuring absorbance at 600 nm. Ultracentrifugation was performed on a Beckman-Coulter Optima XE-90 Ultracentrifuge fitted with a type 45 Ti rotor in 70 mL polycarbonate tubes. Solvents and formic acid used for LC-MS were B & J Brand High Purity Solvents (Honeywell Research Chemicals). High-resolution LC-MS analyses of enzyme assays and synthetic compounds were performed on an Agilent 6530 Q-TOF Mass Spectrometer fitted with a dual-spray electrospray ionization (ESI) source. […] All experiments were performed in positive ion mode, and the masses detected corresponded to [M+H]+ ions unless otherwise noted. […]

[3] = system: ClbPpep; assay: In vitro cleavage of synthetic substrates by isolated peptidase domain, LC-MS detection
Experimental: as §1, §2

[4] = system: ClbPFL; assay: In vitro kinetics assay with ClbPFL (o-phthaldialdehyde derivatization)
Experimental: In vitro kinetics assays with ClbPFL (comparison of substrates 2, 3, and 4 using o-phthaldialdehyde derivatization): Assays were run in triplicate in 1.5 mL deep-well plates. ClbPFL-CHis10 was defrosted from −80° C. stocks on ice, then buffer exchanged into phosphate assay buffer using Zeba Spin 40K MWCO desalting columns (ThermoFisher Scientific). The enzyme was then diluted to 0.6 μM in phosphate assay buffer and 50 μL of this stock was deposited in the appropriate wells. The substrate of interest was prepared in a 2-fold dilution series in phosphate assay buffer. Reactions were initiated by the addition of 250 μL of substrate stock to each assay well to a final concentration of 0.1 μM ClbP, 12.5-200 μM substrate, 3% DMSO and incubated at 25° C. Reaction mixtures were pipetted briefly to mix. […] 50 μL of each supernatant from the quenched reactions and standard curves were then transferred to the appropriate wells, pipetted once to mix, and then fluorescence was immediately measured on a plate reader (Bio-Tek Synergy HTX multimode plate reader, measurement settings −360/40 nm excitation filter, 440/20 nm emission filter, detector gain: 35). Fluorescence was measured every 30 seconds for 10 minutes and the maximum value achieved for each well was used for calculations. […]

[5] = system: CCCC(=O)N[C@H](CC(N)=O)C(=O)N[C@@H](C)C(=O)OC; assay: In vitro kinetics of ClbPFL-mediated cleavage of substrates, o-phthaldialdehyde (OPA) derivatization of L-alanine product with fluorescence detection (FIGS. 2B, 10, 11); settings: pH 8.0
Experimental: as §1
(§3) FIGS. 10A-10C depict the kinetics of ClbPFL-mediated cleavage of substrates (FIG. 10A) 2, (FIG. 10B) 3, and (FIG. 10C) 4. Each data point is an average of 3 biological replicates with error bars representing 1 SD. Solid lines are non-linear regression fits of data points to the Michaelis-Menten model.
(§4) FIG. 11 depicts the kinetic parameters for substrates 2, 3, and 4. […]
(§5) To determine the key features for substrate recognition by full-length ClbP, we undertook a structure-activity-relationship (SAR) focusing on three key regions of the substrate. […] Using a higher-throughput fluorescence derivatization assay, we determined kinetic parameters for several of these substrates (FIG. 2B). […]

[6] = system: CCCCCCCCCCCCCC(=O)N[C@H](CC(N)=O)C(=O)N[C@@H](C)C(=O)OC; assay: as above; settings: pH 8.0
Experimental: as §1, §3, §4, §5

[7] = system: COC(=O)[C@H](C)NC(=O)[C@@H](CC(N)=O)NC(=O)CCCc1ccccc1; assay: as above; settings: pH 8.0
Experimental: as §1, §3, §4, §5

[8] = system: CCCCCCCCCCCCCC(=O)N[C@H](CC(N)=O)C(=O)N[C@@H](C)C(=O)OC; assay: Kinetics of ClbPFL-mediated cleavage of substrates 1 and 2 (FIG. 8); settings: pH 8.0
Source text: (§6) FIG. 8 depicts the kinetics of ClbPFL-mediated cleavage of substrates 1 and 2. Each data point is an average of 3 biological replicates with error bars representing 1 SD. Solid lines are non-linear regression fits of data points to the Michaelis-Menten equation.
(§7) As used herein “ClbP” or “colibactin P” refers to a membrane bound periplasmic peptidase that cleaves an N-acyl-D-asparagine motif (the ‘prodrug scaffold’) from the N-terminus of precolibactin to liberate the active colibactin (FIG. 1). The sequences of ClbP are known in the art, e.g., the polypeptide sequence is available in the Uniprot database as accession number Q0P7K6 (SEQ ID NO: 1).
(§8) We obtained purified enzyme by separating the cell components using ultracentrifugation, solubilizing the membranes in an n-dodecyl-β-D-maltoside (DDM)-containing buffer, and per¬forming immobilized metal affinity chromatography. Because the structure of precolibactin has not yet been fully elucidated, we tested purified ClbPFL against a variety of synthetic precolibactin analogues. […] We chose substrate 2 for a more detailed structure—activity relationship (SAR) study. […]

[9] = system: CCCCCCCCCCCCCC(=O)N[C@H](CC(N)=O)C(=O)N[C@@H](C)CCC(=O)CC(=O)NC1(C(=O)O)CC1; assay: as above; settings: pH 8.0
Source text: as §6, §7, §8

## CCCCCCCCCCCCCC(=O)N[C@H](CC(=O)O)C(=O)N[C@@H](C)C(=O)OC [(6)] (Myristoyl-[dD]-Ala-OMe)
[1]
  cleavage by ClbPFL in vitro: cleaved in low amounts
[1]; LC-MS, relative to (1)
  amount cleaved by ClbPFL, fold less than (1): ~100 fold

## CCCCCCCCCCCCCC(=O)N[C@@H](CC(N)=O)C(=O)N[C@@H](C)C(=O)OC [(7)] (Myristoyl-Asn-Ala-OMe)
[1]
  cleavage by ClbPFL in vitro: no cleavage products were detected

## CCCCCCCCCCCCCC(=O)N[C@H](CCC(N)=O)C(=O)N[C@@H](C)C(=O)OC [(8)] (Myristoyl-[dQ]-Ala-OMe)
[1]
  cleavage by ClbPFL in vitro: no cleavage products were detected

## CCCCCCCCCCCCCC(=O)N[C@H](CC(N)=O)C(=O)N[C@@H](C)CCC(=O)CC(=O)NC1(C(=O)O)CC1 [Compound 1]
[1]
  cleavage by ClbPFL in vitro: rapidly in vitro
[2]
  cleavage by ClbPFL-S95A in vitro: no activity
[3]
  cleavage by ClbPpep in vitro: no activity
[4]
  kinetic parameters / hydrolysis efficiency compared with the reference substrate: comparable

## ClbPFL (full-length ClbP, ClbPFL-CHis10) (Escherichia coli)
[5]
  Km: 680 ± 470 µM
[6]
  Km: 130 ± 26 µM
[7]
  Km: 246 ± 70 µM
[8]
  Km: 75 ± 23 µM
[9]
  Km: 16 ± 2 µM
